Test results published in patent publication US9861568B2, “Composition for improving skin conditions, containing chlorophyll a or pheophorbide a” (GWANGJU INSTITUTE OF SCIENCE AND TECHNOLOGY, priority 2014, dated 2018).

Columns and labels:
[1] = tested on: dorsal skin of UV-irradiated SKH-1 hairless mice; experiment: Histological examination of dorsal skin of UV-irradiated mice (H&E, Masson-trichrome); assay type: in vivo, mouse; details: 5 mg/kg daily oral; for collagen breakdown in the dermis / infiltration of inflammatory cells in the epidermis and upper dermis: compared with the control group; for infiltration of inflammatory cells in the epidermis and upper dermis: H&E stain; for thickness of the epidermis: Masson-trichrome staining
Description: (§1) In order to irradiate animals with UV, the minimal erythema dose (MED) of the dorsal skin of mice was examined first. Minimal erythema dose means the minimum amount of erythema that can be derived with a clear border after 24 hours of irradiation. The mice were irradiated three times a week for 8 weeks with UV. During the first 3 weeks, the dose was increased by 1 MED (herein, 1 MED=30 mJ/cm2), and then 3 MED was maintained thereafter.
(§2) Premature female SKH-1 hairless mice were purchased from Charles River Laboratories (Wilmington, Mass.) and adapted for one week. The mice were housed in air-conditioned rooms in a 12-hour light/12-hour dark cycle to allow them to eat water and food freely. The room temperature was maintained at 23±3° C. and under humidity at 55±15%. All experiments were approved by the Animal Care and Use Committee at Gwangju Institute of Science and Technology.
(§3) After the adaptation period, mice were divided into 4 groups of 6 mice per each group. Each of the groups was as follows:
(§4) Chlorophyll a (Ca, Sigma-Aldrich, St Louis, Mo., USA) or pheophorbide a (Pa, Frontier Scientific, Logan, Utah, USA) was dissolved in a solution of 40% polyethylene glycol 400 (Sigma-Aldrich, St Louis, Mo., USA), respectively. As a control, vehicle was prepared with only 40% polyethylene glycol 400 solution and administered to mice in the negative control and positive control groups. The administration of test materials was made immediately after UV irradiation.
Tissue samples taken from the dorsal skin of UV-irradiated mice were fixed in 4% paraformaldehyde and then included in paraffin. Thin sections with a thickness of 4 μm were stained with hematoxylin and eosin solution. To visualize collagen deposition, the sections were stained with Accustain trichrome stain (Sigma-Aldrich, St. Louis, Mo., USA). The epidermal thickness from a junction of the granular keratocytes to a junction of the dermis-epidermis was measured using an i-Solution DT image acquisition and analysis program (IMT 20 i-solution, Vancouver, Canada) and a Leica microscope (Leica, Wetzlar, Germany). To assess the thickness of the epidermis, any of the ten sites on the slide were measured. In […], inflammatory cells from epidermis to subcutaneous fat layer were calculated.

[2] = tested on: dorsal skin of UV-irradiated SKH-1 hairless mice; experiment: Wrinkle evaluation of dorsal skin of UV-irradiated hairless mice (visual grade, negative replica); assay type: in vivo, mouse; details: UV 8 weeks, 5 mg/kg daily oral; for visual wrinkle grade: clinical images rated by two practitioners; for wrinkle area in replicated images: compared to the control group; for thickness of wrinkles of dorsal skin: compared with the control group
Description: as §1, §2, §3
(c) Group of receiving 5 mg/kg daily chlorophyll a with UV irradiation
(d) Group of receiving 5 mg/kg pheophorbide a daily with UV irradiation
as §4
A digital camera (Sony Cybershot DSC-W570, 5× optical zoom, 16.1 megapixels, Sony Corporation, Tokyo, Japan) was used to obtain a clinical image of the dorsal skin after continuous exposure to low dose UV. The enlarged wrinkles were obtained using DermLite®IIHybridM (3Gen, LLC, San Juan Capistrano, Calif., USA) attached to the digital camera. The wrinkles of the dorsal skin of the mice were graded according to the method described by Bissett et al.. The grades were as follows:
Grade 0—no thick wrinkles;
Grade 1—a few shallow thick wrinkles;
Grade 2—some thick wrinkles;
Grade 3—multiple deep thick wrinkles.
A negatively imprinted replica was used to analyze the wrinkles of the skin, which is described by Ryu et al.. That is, a semi-fluidic silicone polymer was mixed with a catalyst (Imprint II Garant™ Light Body, 3M) and then applied to a dorsal skin sufficiently to penetrate into the wrinkles beyond a contour. This replica was analyzed under standard illumination with an incident angle where the replica was formed and set to produce a reflective shadow proportional to the height of the wrinkles. The captured images were analyzed from a shadow region in the images using image analysis software (ImageJ software, NIH Image, National Institutes of Health, Bethesda, Md., USA; online at: http://rsb.info.nih.gov/ij/).

MMP-3 [3] = experiment: Western blotting of MMP-3 protein in UV-irradiated hDF cells; assay type: cell-based, human; details: various concentrations
Description: (§5) The primary human dermal fibroblast (hDF) cell line was obtained from Chonnam National University Medical School (Gwangju, Republic of Korea). The cells were cultured at 37° C. and under 5% CO2 using Dulbecco's Modified Eagle's Medium (DMEM, Gibco Laboratories, Grand Island, N.Y., USA) supplemented with 5% fetal bovine serum (Gibco Laboratories, Grand Island, N.Y., USA) and 1% penicillin (100 units/ml)/streptomycin ([…]).
(§6) Philips TL 20W/12 RS fluorescent sun lamp with emission spectra of 280 nm and 380 nm was used as an UV source. The UV intensity at the skin surface was measured using a UV detector (GUVx-T1xGS5-LA2, Genicom Daejeon, Korea). The UV irradiation intensity was 1.0 mW/cm2 at 30 cm from the UV source. The cells were cultured up to 75-80% of culture dish, washed twice with PBS buffer, and irradiated with UV to treat test materials. Thereafter, the cells were continuously cultured in the absence of light until the next analysis. […]

[4] = tested on: intercellular adhesion molecule-1 (ICAM-1); experiment: Immunohistochemical staining for ICAM-1 in dorsal skin of UV-irradiated mice; assay type: in vivo, mouse; details: 5 mg/kg daily oral, compared with the UV-only-irradiated group
Description: as §1, §2, §3
as §4, with “The administration of test materials was made immediately after UV irradiation.” left out

MMP-1 [5] = experiment: Real-time RT-PCR of MMP-1 mRNA in UV-irradiated hDF cells; assay type: cell-based, human; details: cultured 24 hours, relative to GAPDH
Description: as §5
(§7) Philips TL 20W/12 RS fluorescent sun lamp with emission spectra of 280 nm and 380 nm was used as an UV source. The UV intensity at the skin surface was measured using a UV detector (GUVx-T1xGS5-LA2, Genicom Daejeon, Korea). The UV irradiation intensity was 1.0 mW/cm2 at 30 cm from the UV source. The cells were cultured up to 75-80% of culture dish, washed twice with PBS buffer, and irradiated with UV to treat test materials. Thereafter, the cells were continuously cultured in the absence of light until the next analysis.
(§8) Total RNA was isolated using a Trizol reagent (Invitrogen, Carlsbad, Calif., USA) according to the manufacturer's instructions. […] For the detection of fluorescence during the PCR amplification, SYBR Premix Ex Taq (Takara Bio, Otsu, Japan) was used. […]
(§9) In addition, UV was irradiated, the test materials were treated, cultured for 24 hours, and then the mRNA level of MMPs was analyzed using a real time RT PCR method. […]

[6] = tested on: c-Jun N-terminal kinase (JNK); experiment: Western blotting of phosphorylated JNK and JNK in UV-irradiated hDF cells; assay type: cell-based, human
Description: as §5, §7
The total protein extracts from the samples were dissolved in lysis buffer (50 mM Tris (pH 7.4), 150 mM NaCl, 1 mM EGTA, 1% NP-40, 0.25% sodium deoxycholate, 1 mM PMSF, and phosphatase inhibitor mixture (Sigma, St. Louis, Mo., USA) and then boiled for 5 minutes. The dissolved proteins were quantitated using Bio-Rad Protein Assay Dye Reagent Concentrate (Bio-Rad Laboratories, Hercules, Calif., USA) and then separated by SDS-PAGE and transferred to a polyvinylidene difluoride (PVDF) membrane (Amersham Pharmacia Biotech, Piscataway, N.J., USA). Membranes were reacted with specific primary antibodies overnight at 4° C., and protein bands were then visualized using secondary antibodies coupled with horseradish peroxidase (HRP) and a chemiluminescence detection kit (Amersham Pharmacia Biotech). […]

MMP-1 [7] = experiment: Western blotting of MMP-1 protein in UV-irradiated hDF cells; assay type: cell-based, human; details: various concentrations
Description: as §5, §6

[8] = tested on: human dermal fibroblast (hDF) cells; experiment: Cell viability assay (water soluble tetrazolium) in UV-irradiated hDF cells; assay type: cell-based; details: UV 20 mJ/cm2, 0, 10, 20, 50 μM, 72 hours in the absence of light
Description: as §5, §7
A water soluble tetrazolium test method was used for cell viability analysis. Quantification of living cells was performed using a […] Ez-cytox Cell Viability Assay Kit (Daeil Lab Co, Seoul, Korea). The formazan dye was analyzed spectrophotometrically by measuring the absorbance at 450 nm using a Chameleon multi-label plate reader (Hidex Personal Life Science, Hidex Oy, Finland). […]

[9] = tested on: extracellular signal-regulated kinase (Erk); experiment: Western blotting of phosphorylated Erk in UV-irradiated hDF cells; assay type: cell-based, human; details: 20 μM and 50 μM, 2 hours in the absence of light
Description: as §5, §6

MMP-3 [10] = experiment: Real-time RT-PCR of MMP-3 mRNA in UV-irradiated hDF cells; assay type: cell-based, human; details: cultured 24 hours, relative to GAPDH
Description: as §5, §7, §8, §9

pheophorbide a
collagen breakdown in the dermis [1]: less collagen breakdown occurred
infiltration of inflammatory cells in the epidermis and upper dermis [1]: reduced
thickness of the epidermis [1]: A decrease in thickness
visual wrinkle grade [2]: wrinkles grades were lower
wrinkle area in replicated images [2]: a decrease in the wrinkle area
thickness of wrinkles of dorsal skin [2]: remarkably reduced
MMP-3 protein expression level (MMP-3 [3]): decreased in proportion to the amount treated
level of ICAM-1 expression in the epidermis and upper dermis [4]: decreased
MMP-1 mRNA level (MMP-1 [5]): significant decrease
MAPK phosphorylation inhibition ([6]; 10 μM, 2 hours): not as much as 20 μM and 50 μM
expression level of phosphorylated JNK ([6]; 20 μM and 50 μM, 2 hours in the absence of light): decreased
basal JNK protein level ([6]; 2 hours in the absence of light): decreased in proportion to the amount of pheophorbide a
MMP-1 protein expression level (MMP-1 [7]): decreased in proportion to the amount treated
cell viability [8]: not affected
expression level of phosphorylated Erk [9]: decreased
MMP-3 mRNA level (MMP-3 [10]): significant decrease

C=Cc1c(C)c2cc3nc(c4c5[n-]c(cc6nc(cc1[n-]2)C(C)=C6CC)c(C)c5C(=O)[C@@H]4C(=O)OC)[C@@H](CCC(=O)OC/C=C(\C)CCC[C@H](C)CCC[C@H](C)CCCC(C)C)[C@@H]3C.[Mg+2] [chlorophyll a]
collagen breakdown in the dermis [1]: less collagen breakdown occurred
infiltration of inflammatory cells in the epidermis and upper dermis [1]: reduced
thickness of the epidermis [1]: A decrease in thickness
visual wrinkle grade [2]: wrinkles grades were lower
wrinkle area in replicated images [2]: a decrease in the wrinkle area
thickness of wrinkles of dorsal skin [2]: remarkably reduced
level of ICAM-1 expression in the epidermis and upper dermis [4]: decreased
